In EP1490080B1, “medical use of anthocyanins extracted from black rice” (Forbes Medi-Tech Inc., priority 2002, dated 2003):

Key:
[1] = test system: LPS-activated mouse macrophage cell RAW264.7; test: Inhibition of nitric oxide (nitrite, Griess reagent) in LPS-activated macrophage cells; type: cell-based; details: mean±SD, 1µg/ml LPS 24 hr
Procedure: Mouse macrophage cell RAW 264.7 (ATCC) was cultured in DMEM medium supplemented with 10% fetal bovine serum and antibiotics (100U/ml of penicillin and […]) at 37°C under 5% CO2, Cell was plated at a density of 2×10^5 cells/well into 96-well plates. After overnight growth when cells adhered to the bottom of well, various amount of the black rice extract in PBS and 1µg/ml bacterial lipopolysaccharide (LPS, Escheridchia coli, serotype 0111:B4) were added for another 24 hr. Medium was aliquot (100µl) to another 96-well plate where 100µl of Greiss reagent (1% sulfanilamide in 5% phosphoric acid and 0.1 % naphthylethylenediamine dihydrocholide in water, 1:1 v/v) was then added. Absorbance at 540nm was determined with ELISA plate reader. The concentration of nitrite was measured in according to standard curve obtained from the same procedure. The inhibition of nitric oxide was calculated according to the following equation: %Inhibition = (Abspositive -Abssample)/(Abspositive -Absnegative) × 100 [formula] of which, Abspositive, Absnegative, Abssample represent absorbance of cultural media with LPS, without LPS and sample with LPS.
Large amount of nitric oxide expression was made possible by using mouse macrophage cell line RAW264.7 co-incubated with bacterial LPS. The measurement of nitric oxide was indirectly measured by its metabolite nitrite in the supernatant of cell cultural media by Griess reagent.

[2] = test system: supercoiled DNA; test: Peroxyl radical (AAPH) induced supercoiled DNA scission, agarose gel electrophoresis; type: biochemical
Description: The effects of the anthocyanin composition in preventing DNA oxidation induced by oxidative radicals such as the peroxyl radical and hydroxyl radicals (site specific and non-site specific) were investigated. […] A similar effect was seen by the addition of cyanidin-3-glucoside and peonidin-3-glucoside in combination at various ratios Figure 11).
(§1) Both peroxyl radical and hydroxyl radical were applied in this test to evaluate the effect of black rice extract of the present invention in preventing DNA scission by 0.7% agarose gel electrophoresis with 0.5µg/ml ethidium bromide using TAE buffer (40mM Tris-acetate, 2mM EDTA, pH8.5). DNA bands were visualized by ultraviolet bench top transilluminator (UVP Inc., Upland, CA) and densities of bands were analyzed by LabWork software (UVP Inc., Upland, CA). The inhibition of DNA nicking was calculated as following equation: %Inh = (Dnative -Dsample)/(Dnative -Doxidative) × 100 [formula]
(§2) Dnative, Doxidative. Dsample represented the density of DNA without AAPH, DNA with AAPH and DNA with AAPH and test sample, respectively.

[3] = test system: supercoiled DNA; test: DNA nicking induced by non-site specific hydroxyl radical, agarose gel electrophoresis; type: biochemical
Procedure: (§3) In this hydroxyl radical model, the hydroxyl radical was generated by ascorbic acid mediated Fenton reaction.
as §1, §2
(§4) In the present study, we adapted the concept of both non-site specific and site-specific hydroxyl radical and applied these to the DNA scission assays (Figures 10 and 11). It is evident that hydroxyl radical, no matter site-specific or non-site specific broke the integrity of supercoiled DNA strand (lane 2 of Figure 10).

[4] = test system: supercoiled DNA; test: DNA nicking induced by site-specific hydroxyl radical, agarose gel electrophoresis; type: biochemical
Procedure: as §3, §1, §2, §4

Compound	inhibition at 1 µM ([1]; Mus musculus, RAW264.7, 1µM, read-out: Inhibition percentage of nitric oxide) [%]	inhibition at 10 µM ([1]; Mus musculus, RAW264.7, 10µM, read-out: Inhibition percentage of nitric oxide) [%]	inhibition at 100 µM ([1]; Mus musculus, RAW264.7, 100µM, read-out: Inhibition percentage of nitric oxide) [%]	protection on the DNA strand scission ([2]; 1µg/ml) [%]	protection on the DNA strand scission ([2]; 5µg/ml) [%]	Inhibition percentage of nitric oxide ([1]; 1µM) [%]	Inhibition percentage of nitric oxide ([1]; 10µM) [%]	Inhibition percentage of nitric oxide ([1]; 100µM) [%]	Inhibition percentage, Non-site specific ([3]; 0.17 µg/ml) [%]	Inhibition percentage, Non-site specific ([3]; 1.7 µg/ml) [%]	Inhibition percentage, Site specific ([4]; 0.17 µg/ml) [%]	Inhibition percentage, Site specific ([4]; 1.7 µg/ml) [%]	%Inh ([2]; 10µg/ml) [%]	recovery of peroxyl radical damage to the supercoiled DNA strand ([2]; Figure 10)
OC[C@H]1O[C@@H](Oc2cc3c(O)cc(O)cc3[o+]c2-c2ccc(O)c(O)c2)[C@H](O)[C@@H](O)[C@@H]1O [Cyanidin-3-glucoside, cyanidin-3-O-glucoside]	12.7 ± 2.7	23.1 ± 0.9	72.9 ± 4.8	11.5	45.3									
COc1cc(-c2[o+]c3cc(O)cc(O)c3cc2O[C@@H]2O[C@H](CO)[C@@H](O)[C@H](O)[C@H]2O)ccc1O [Peonidin-3-glucoside, peonidin-3-O-glucoside]				11.4	44.1	14.4±0.6	22.3±3.7	35.0±2.5						
Cc1c(C)c2c(c(C)c1O)CCC(C)(C(=O)O)O2 (stereo not shown) [Trolox]									44.0	80.8	25.7	61.0	100	partial recovery
